Reference: ChEMBL document CHEMBL4433214, “Investigation around the Oxadiazole Core in the Discovery of a New Chemotype of Potent and Selective FXR Antagonists” (ACS Med Chem Lett, 2019)
In brackets after ≈: the same amount, converted by molar mass. Activity calls are given as the source filed them. The rule behind the calls is not given here.

Key:
[1] = target: T1, Oxysterols receptor LXR-alpha (Homo sapiens) (UniProt Q13133); test: Agonist activity at human LXRalpha transfected in HepG2 at 10 uM by luciferase reporter assay; assay type: cell-based
T1 sequence (whole entry): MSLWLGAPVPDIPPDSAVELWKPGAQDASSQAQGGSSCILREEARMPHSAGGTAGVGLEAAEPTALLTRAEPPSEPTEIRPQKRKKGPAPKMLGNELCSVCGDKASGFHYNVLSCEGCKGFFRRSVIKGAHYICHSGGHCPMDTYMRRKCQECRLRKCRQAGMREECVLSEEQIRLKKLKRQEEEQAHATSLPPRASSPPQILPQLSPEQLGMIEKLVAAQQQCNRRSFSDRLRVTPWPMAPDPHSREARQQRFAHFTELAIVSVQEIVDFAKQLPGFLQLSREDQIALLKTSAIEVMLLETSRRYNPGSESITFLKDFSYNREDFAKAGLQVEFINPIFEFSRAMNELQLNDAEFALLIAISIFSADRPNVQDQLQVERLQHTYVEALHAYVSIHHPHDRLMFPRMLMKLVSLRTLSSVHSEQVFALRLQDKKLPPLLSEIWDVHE

[2] = target: T2, Oxysterols receptor LXR-beta (Homo sapiens) (UniProt P55055); test: Agonist activity at human LXRbeta transfected in HepG2 at 10 uM by luciferase reporter assay; assay type: cell-based
T2 sequence (whole entry): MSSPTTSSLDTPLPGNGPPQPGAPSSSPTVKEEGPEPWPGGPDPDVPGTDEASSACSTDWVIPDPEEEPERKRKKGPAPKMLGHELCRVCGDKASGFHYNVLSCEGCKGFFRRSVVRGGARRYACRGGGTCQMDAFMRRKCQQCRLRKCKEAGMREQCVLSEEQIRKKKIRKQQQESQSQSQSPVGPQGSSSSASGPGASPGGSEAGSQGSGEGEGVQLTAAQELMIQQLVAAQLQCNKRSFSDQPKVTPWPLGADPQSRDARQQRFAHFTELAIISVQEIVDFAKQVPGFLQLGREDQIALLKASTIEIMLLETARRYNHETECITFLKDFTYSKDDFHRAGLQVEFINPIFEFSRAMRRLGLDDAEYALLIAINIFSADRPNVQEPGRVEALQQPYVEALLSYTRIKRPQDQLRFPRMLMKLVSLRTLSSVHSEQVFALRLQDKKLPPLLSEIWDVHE

[3] = target: T3, Nuclear receptor subfamily 1 group I member 2 (Homo sapiens, UniProt O75469); test: Agonist activity at human PXR transfected in HepG2 at 10 uM by luciferase reporter assay; assay type: cell-based; settings: hepg2, 10 µM
T3 sequence (O75469 whole entry): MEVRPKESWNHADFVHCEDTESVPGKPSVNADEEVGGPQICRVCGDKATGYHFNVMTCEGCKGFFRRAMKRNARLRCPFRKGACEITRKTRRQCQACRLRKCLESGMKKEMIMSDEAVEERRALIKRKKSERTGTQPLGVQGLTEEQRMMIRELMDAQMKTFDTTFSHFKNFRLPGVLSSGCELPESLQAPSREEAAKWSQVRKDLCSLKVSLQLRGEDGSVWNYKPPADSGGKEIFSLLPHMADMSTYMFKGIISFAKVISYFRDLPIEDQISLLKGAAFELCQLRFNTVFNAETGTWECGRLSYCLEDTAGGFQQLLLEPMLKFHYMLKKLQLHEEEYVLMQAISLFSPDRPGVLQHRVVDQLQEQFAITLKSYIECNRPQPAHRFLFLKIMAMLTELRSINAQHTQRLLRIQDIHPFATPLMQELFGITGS

[4] = target: T1, Oxysterols receptor LXR-alpha (Homo sapiens); test: Antagonist activity at human LXRalpha transfected in HepG2 at 5 uM in presence of LXRalpha agonist GW3965 by luciferase reporter assay; assay type: cell-based
[5] = Aqueous solubility of compound in pH 7.4 PBS buffer incubated for 24 hrs under gently shaking condition by LC-MS/MS analysis; assay type: physicochemical
[6] = Lipophilicity, log D of the compound by LC-MS/MS analysis; assay type: physicochemical; settings: octanol/water
[7] = target: T4, Bile acid receptor (Homo sapiens) (UniProt Q96RI1); test: Antagonist activity at human FXR in HepG2 cells assessed as reversal of CDCA-induced reduction in CYP7A1 mRNA expression level at 0.1 to 1 uM dosed after 24 hrs starvation followed by CDCA addition and measured after 18 hrs by RT-PCR analysis
T4 sequence (whole entry): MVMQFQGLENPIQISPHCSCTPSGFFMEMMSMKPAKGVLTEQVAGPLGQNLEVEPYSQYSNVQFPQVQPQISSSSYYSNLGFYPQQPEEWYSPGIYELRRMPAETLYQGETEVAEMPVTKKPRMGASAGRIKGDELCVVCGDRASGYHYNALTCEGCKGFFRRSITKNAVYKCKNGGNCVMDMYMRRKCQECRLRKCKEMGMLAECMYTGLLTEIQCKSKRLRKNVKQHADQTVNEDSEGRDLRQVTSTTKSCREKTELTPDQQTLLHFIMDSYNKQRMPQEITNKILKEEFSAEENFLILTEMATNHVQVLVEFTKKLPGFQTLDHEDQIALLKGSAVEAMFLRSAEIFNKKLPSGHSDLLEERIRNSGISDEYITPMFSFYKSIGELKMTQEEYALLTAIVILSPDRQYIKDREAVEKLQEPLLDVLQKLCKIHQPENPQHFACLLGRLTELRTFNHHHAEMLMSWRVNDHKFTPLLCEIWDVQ

[8] = Intrinsic clearance in rat liver microsomes at 1 uM incubated for 2 hrs by LC-MS/MS analysis; settings: read-out: CLH

c1ccc2cc(-c3noc(C4CCNCC4)n3)ccc2c1
Activity [1]: inactive
Activity [2]: inactive
Activity [3]: Not Active
Activity [4]: inactive
solubility at 24 h [5]: 200 µM (≈ 55.9 µg/mL)
logD [6]: 0.34
Activity [7]: Active
microsomal CLint at 1 µM [8]: 20.7 µL/min/mg
